Among the test systems are UACC-257 melanoma; MDA-N; SK-MEL-5 melanoma; MDA-MB-435; SK-MEL-2 melanoma; CAKI-1 renal; BT-549 breast; DU-145 prostate; MALME-3M melanoma; A498 renal.
Test in all cases: inhibition of tumour cell growth, NCI panel, 48 h

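Where inhibition never reached the appropriate level, the endpoint shown equals the highest concentration tested. Otherwise, values were interpolated linearly from a five-concentration, 48-hour dose response in 96-well plates. TGI: concentration producing complete growth inhibition.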

For `CC(C)c1cc(C(C)C)c(B(c2ccccc2)c2ccccc2)c(C(C)C)c1Br`, the TGI with UACC-257 melanoma, in the test on MDA-N, with SK-MEL-5 melanoma, with MDA-MB-435, with SK-MEL-2 melanoma and with CAKI-1 renal was greater than 100 µM in each case. The TGI in the test with BT-549 breast, with DU-145 prostate, with MALME-3M melanoma and in the test on A498 renal was greater than 100 µM each time.

For the compound `Oc1[nH]c2ccccc2c1N=NC(=S)NCc1ccccn1`, the TGI with UACC-257 melanoma is 13.7 µM; in the test on MDA-N, 19.9 µM; in the test on SK-MEL-5 melanoma, 12 µM; with MDA-MB-435 it was 17.4 µM; in the test with SK-MEL-2 melanoma, 28.7 µM; in the test with CAKI-1 renal, 11.7 µM. The TGI turned out to be 17.5 µM with BT-549 breast, 12.7 µM in the test on DU-145 prostate, 17.9 µM in the test on MALME-3M melanoma and 7.51 µM in the test with A498 renal.

For `CC(C)(CO)Nc1c(O)c2c(c(O)c1Cl)C(=O)C=CC2=O`, the TGI was found to be 3.11 µM with UACC-257 melanoma; 2.26 µM in the test on MDA-N; 2.35 µM in the test with SK-MEL-5 melanoma; 2.38 µM in the test with MDA-MB-435; 4.8 µM in the test with SK-MEL-2 melanoma; 3.41 µM in the test with CAKI-1 renal. Besides, the TGI in the test on BT-549 breast was found to be 2.24 µM; with DU-145 prostate, 3.35 µM; in the test with MALME-3M melanoma, 3.33 µM; in the test with A498 renal, 3.36 µM.

For `C/C(=N/NC(=O)c1ccccc1Nc1ccccc1C(=O)N/N=C(\C)c1ccc(C)cc1)c1ccc(C)cc1`, the TGI in the test with UACC-257 melanoma, in the test on MDA-N, with SK-MEL-5 melanoma, with MDA-MB-435, in the test on SK-MEL-2 melanoma and with CAKI-1 renal was greater than 100 µM each time. The TGI in the test on BT-549 breast, in the test with DU-145 prostate, in the test on MALME-3M melanoma and in the test on A498 renal was greater than 100 µM each time.

For the compound `O=c1[nH]c(=O)c2c([nH]1)[nH]c1ccccc12`, the TGI in the test on UACC-257 melanoma, with MDA-N, in the test on SK-MEL-5 melanoma, with MDA-MB-435, with SK-MEL-2 melanoma and with CAKI-1 renal was greater than 100 µM each time. Moreover, the TGI with BT-549 breast, in the test with DU-145 prostate, with MALME-3M melanoma and in the test on A498 renal was greater than 100 µM each time.

Take `CC1=NNC(N)=N/C1=C\C(Sc1ccc(Cl)cc1)c1ccc(Cl)cc1Cl` (centres undefined): the TGI was 39.9 µM in the test on UACC-257 melanoma; greater than 71.5 µM with MDA-N; 40.1 µM with SK-MEL-5 melanoma; greater than 76.6 µM with MDA-MB-435; 38 µM in the test with SK-MEL-2 melanoma; greater than 67.1 µM in the test with CAKI-1 renal. Further, the TGI in the test on BT-549 breast was determined as 55.7 µM; in the test on DU-145 prostate, 61.7 µM; with MALME-3M melanoma, 28.8 µM; in the test with A498 renal, 42.8 µM.

For `COc1ccc(C2CCc3c(cnc4nc(N)nc(N)c34)C2)cc1` (centres undefined), the TGI in the test on UACC-257 melanoma, with MDA-N, in the test on SK-MEL-5 melanoma, in the test on MDA-MB-435, in the test with SK-MEL-2 melanoma and with CAKI-1 renal was greater than 100 µM in each case. In addition, the TGI in the test on BT-549 breast, in the test on DU-145 prostate, in the test on MALME-3M melanoma and in the test on A498 renal was greater than 100 µM in each case.

On to `Nc1nc(Cl)cc(NCC2CC(O)(CO)C2)n1` (centres undefined), for which the TGI with UACC-257 melanoma, in the test with MDA-N, with SK-MEL-5 melanoma, in the test on MDA-MB-435, with SK-MEL-2 melanoma and in the test with CAKI-1 renal was greater than 100 µM throughout. Besides, the TGI in the test with BT-549 breast, in the test on DU-145 prostate, with MALME-3M melanoma and with A498 renal was greater than 100 µM throughout.

Regarding `CN1CCN(C2CC(=O)c3c(Cl)sc(Cl)c32)CC1` (centres undefined), the TGI in the test with UACC-257 melanoma was greater than 61.5 µM; in the test on MDA-N it was 35 µM; in the test on SK-MEL-5 melanoma, greater than 56.4 µM; with MDA-MB-435, 16.5 µM; with SK-MEL-2 melanoma, greater than 59.9 µM; in the test on CAKI-1 renal, 39.6 µM. Further, the TGI is greater than 52.2 µM in the test with BT-549 breast, 30.2 µM with DU-145 prostate, greater than 50.3 µM with MALME-3M melanoma and greater than 75 µM in the test on A498 renal.

As to `CC1CC/C(=C\c2ccc(F)cc2)C2=C1C(c1ccc(F)cc1)NC(=S)N2` (centres undefined), the TGI in the test on UACC-257 melanoma, in the test on MDA-N, in the test on SK-MEL-5 melanoma, in the test with MDA-MB-435, with SK-MEL-2 melanoma and in the test with CAKI-1 renal was greater than 100 µM in each case. The TGI with BT-549 breast is greater than 100 µM; in the test with DU-145 prostate it was greater than 100 µM; in the test with MALME-3M melanoma it was 87.3 µM; in the test on A498 renal, 98.7 µM.

Take `O=C(O)CCC(NC(=O)/C(=C/c1ccccc1)NC(=O)c1ccccc1)C(=O)O` (centres undefined): the TGI in the test with UACC-257 melanoma, in the test with MDA-N, with SK-MEL-5 melanoma, in the test with MDA-MB-435, in the test with SK-MEL-2 melanoma and in the test on CAKI-1 renal was greater than 100 µM each time. Besides, the TGI with BT-549 breast, with DU-145 prostate, in the test with MALME-3M melanoma and with A498 renal was greater than 100 µM in each case.

As for `Nc1nn2cc(-c3ccccc3)[n+](CC(=O)c3ccccc3)c2s1`, the TGI was 70.5 µM in the test with UACC-257 melanoma; greater than 100 µM in the test on MDA-N; 73.8 µM with SK-MEL-5 melanoma; greater than 100 µM in the test on MDA-MB-435; 30.4 µM with SK-MEL-2 melanoma; greater than 100 µM with CAKI-1 renal. The TGI with BT-549 breast is 40.5 µM; in the test with DU-145 prostate, greater than 100 µM; with MALME-3M melanoma, 27.3 µM; in the test with A498 renal it was greater than 100 µM.

`CCOC(=O)CCN1C(=O)c2c(NC(=O)C(=O)O)cccc2S1(=O)=O`: the TGI in the test on UACC-257 melanoma, in the test on MDA-N, in the test on MDA-MB-435, in the test on SK-MEL-2 melanoma, in the test on CAKI-1 renal and in the test with BT-549 breast was greater than 100 µM throughout. In addition, the TGI with DU-145 prostate, with MALME-3M melanoma and with A498 renal was greater than 100 µM in each case.

Regarding `C[C@@H]1CC(=O)[C@@]2(C)[C@](O)(CCC3O[C@]32C)[C@@]12CC(c1ccoc1)OC2=O` (some centres undefined), the TGI in the test with UACC-257 melanoma, in the test on MDA-N, in the test with SK-MEL-5 melanoma, in the test with MDA-MB-435, in the test with SK-MEL-2 melanoma and in the test with CAKI-1 renal was greater than 100 µM in each case. The TGI in the test on BT-549 breast, in the test with DU-145 prostate, with MALME-3M melanoma and with A498 renal was greater than 100 µM throughout.

Turning to `CCOC(=O)N1c2c(c3ccccc3n2C(=O)OCC)C(=O)C(OC)N1C(=O)OCC` (centres undefined), the TGI with UACC-257 melanoma is greater than 100 µM; in the test on MDA-N it was greater than 100 µM; in the test with SK-MEL-5 melanoma it was 60.7 µM; in the test on MDA-MB-435, greater than 100 µM; in the test with SK-MEL-2 melanoma it was 36.4 µM; in the test with CAKI-1 renal it was 93.9 µM. The TGI in the test with BT-549 breast was greater than 100 µM; with DU-145 prostate, greater than 100 µM; in the test on MALME-3M melanoma, 69.8 µM; in the test with A498 renal, 88.6 µM.

As for `O=S1(=O)OCCOS(=O)(=O)C1S(=O)(=O)c1cccc2ccccc12`, the TGI in the test with UACC-257 melanoma, in the test on MDA-N, in the test with SK-MEL-5 melanoma, in the test on MDA-MB-435, in the test with SK-MEL-2 melanoma and in the test on CAKI-1 renal was greater than 100 µM throughout. Further, the TGI in the test with BT-549 breast, in the test with DU-145 prostate and with MALME-3M melanoma was greater than 100 µM throughout.

With `C=C1CC2C[C@H](OS(=O)(=O)c3ccc(C)cc3)C(C1)N2C` (some centres undefined), the TGI with UACC-257 melanoma, in the test with MDA-N, with SK-MEL-5 melanoma, in the test on MDA-MB-435, with SK-MEL-2 melanoma and in the test with CAKI-1 renal was greater than 100 µM throughout. Further, the TGI with BT-549 breast, in the test with DU-145 prostate and with MALME-3M melanoma was greater than 100 µM throughout.

For `C(=N\Nc1nnc(-c2nnc(N/N=C/c3ccccc3)o2)o1)/c1ccccc1`, the TGI in the test with UACC-257 melanoma, with MDA-N, with SK-MEL-5 melanoma, with MDA-MB-435, in the test with CAKI-1 renal and in the test on BT-549 breast was greater than 10 µM each time. The TGI with DU-145 prostate, in the test on MALME-3M melanoma and with A498 renal was greater than 10 µM in each case.

Regarding `Cn1c(-c2cccs2)cc(-c2ccsc2)c1-c1ccsc1`, the TGI in the test on UACC-257 melanoma, in the test on MDA-N, in the test on SK-MEL-5 melanoma, in the test with MDA-MB-435, in the test on CAKI-1 renal and with BT-549 breast was greater than 100 µM in each case. The TGI in the test with DU-145 prostate, in the test on MALME-3M melanoma and in the test with A498 renal was greater than 100 µM each time.

For `COc1ccc(C(OCC2OC(n3ccc(Oc4c(F)c(F)c(F)c(F)c4F)nc3=O)CC2OP(OCCC#N)N(C(C)C)C(C)C)(c2ccccc2)c2ccc(OC)cc2)cc1` (centres undefined), the TGI in the test with UACC-257 melanoma, with MDA-N, in the test on SK-MEL-5 melanoma, with MDA-MB-435, in the test on SK-MEL-2 melanoma and with CAKI-1 renal was greater than 100 µM throughout. In addition, the TGI in the test on BT-549 breast, with DU-145 prostate and with A498 renal was greater than 100 µM throughout.

(Values after PubChem BioAssay (NCI).)
